The EC50 is the concentration at which the effect is half-maximal.

In this assay the test system is recombinant NL4-3 virus (nef section replaced with Renilla luciferase gene, Gag P373S). Kind of assay: HIV Cell Culture Assay. In kind it is cell-based. Conditions: NL43. As for the experimental part: MT-2 cells and 293T cells were obtained from the NIH AIDS Research and Reference Reagent Program. MT-2 cells were propagated in RPMI 1640 media supplemented with 10% heat inactivated fetal bovine serum, […]. The 293T cells were propagated in DMEM media supplemented with 10% heat inactivated fetal bovine serum (FBS), 100 units/ml penicillin G and 100 μg/ml streptomycin. The proviral DNA clone of NL4-3 was obtained from the NIH AIDS Research and Reference Reagent Program. A recombinant NL4-3 virus, in which a section of the nef gene from NL4-3 was replaced with the Renilla luciferase gene, was used as a reference virus. In addition, residue Gag P373 was converted to P373S. Briefly, the recombinant virus was prepared by transfection of the altered proviral clone of NL4-3. Transfections were performed in 293T cells using LipofectAMINE PLUS from Invitrogen (Carlsbad, Calif.), according to manufacturer's instruction. The virus was titered in MT-2 cells using luciferase enzyme activity as a marker. Luciferase was quantitated using the Dual Luciferase kit from Promega (Madison, Wis.), with modifications to the manufacturer's protocol. The diluted Passive Lysis solution was pre-mixed with the re-suspended Luciferase Assay Reagent and the re-suspended Stop & Glo Substrate (2:1:1 ratio). Fifty (50) μL of the mixture was added to each aspirated well on assay plates and luciferase activity was measured immediately on a Wallac TriLux (Perkin-Elmer). Antiviral activities of inhibitors toward the recombinant virus were quantified by measuring luciferase activity in cells infected for 4-5 days with NLRluc recombinants in the presence serial dilutions of the inhibitor. Note that some of the data is provided in abbreviated exponential form such that, for example, 2.53E−3, is equivalent to 2.53×10^−3.

Regarding `CC(C)[C@@H]1CC[C@]2(NC(=O)NCCN(C)C)CC[C@]3(C)[C@H](CC[C@@H]4[C@@]5(C)CC[C@@H](c6ccc(C(=O)O)cc6)C(C)(C)[C@@H]5CC[C@]43C)[C@@H]12` (single isomer, unassigned) [Example B5], the EC50 worked out at 5.16 nM.

On to `CC(C)[C@@H]1CC[C@]2(NC(=O)NCCCN(C)C)CC[C@]3(C)[C@H](CC[C@@H]4[C@@]5(C)CC[C@@H](c6ccc(C(=O)O)cc6)C(C)(C)[C@@H]5CC[C@]43C)[C@@H]12` (single isomer, unassigned) [Example B6], for which the EC50 stood at 5.13 nM. Under `CC(C)[C@@H]1CC[C@]2(NC(=O)OCCN(C)C)CC[C@]3(C)[C@H](CC[C@@H]4[C@@]5(C)CC[C@@H](c6ccc(C(=O)O)cc6)C(C)(C)[C@@H]5CC[C@]43C)[C@@H]12` (single isomer, unassigned) [Example B7] stands 6.45 nM. As for `CC(C)[C@@H]1CC[C@]2(NC(=O)OCCCN(C)C)CC[C@]3(C)[C@H](CC[C@@H]4[C@@]5(C)CC[C@@H](c6ccc(C(=O)O)cc6)C(C)(C)[C@@H]5CC[C@]43C)[C@@H]12` (single isomer, unassigned) [Example B8], the figure is 4.49 nM.

Take `CC(C)[C@@H]1CC[C@]2(NC(=O)CN(C)C)CC[C@]3(C)[C@H](CC[C@@H]4[C@@]5(C)CC[C@@H](c6ccc(C(=O)O)cc6)C(C)(C)[C@@H]5CC[C@]43C)[C@@H]12` (single isomer, unassigned) [Example B9]: the EC50 was determined as 10 nM.

Regarding `CC(C)[C@@H]1CC[C@]2(NC(=O)CCN(C)C)CC[C@]3(C)[C@H](CC[C@@H]4[C@@]5(C)CC[C@@H](c6ccc(C(=O)O)cc6)C(C)(C)[C@@H]5CC[C@]43C)[C@@H]12` (single isomer, unassigned) [Example B10], the EC50 was determined as 3.81 nM. As for `CC(C)[C@@H]1CC[C@]2(NC(=O)CCCN(C)C)CC[C@]3(C)[C@H](CC[C@@H]4[C@@]5(C)CC[C@@H](c6ccc(C(=O)O)cc6)C(C)(C)[C@@H]5CC[C@]43C)[C@@H]12` (single isomer, unassigned) [Example B11], the figure is 5.94 nM. Under `CC(C)[C@@H]1CC[C@]2(NCCN3C[C@@H]4C[C@H]3CS4(=O)=O)CC[C@]3(C)[C@H](CC[C@@H]4[C@@]5(C)CC[C@@H](c6ccc(C(=O)O)cc6)C(C)(C)[C@@H]5CC[C@]43C)[C@@H]12` (single isomer, unassigned) [Example B12] stands 0.605 nM; under `CC(C)[C@@H]1CC[C@]2(C(=O)O)CC[C@]3(C)[C@H](CC[C@@H]4[C@@]5(C)CC[C@@H](c6ccc(C(=O)O)cc6)C(C)(C)[C@@H]5CC[C@]43C)[C@@H]12` [Example B1, (1S,3aS,5aR,5bR,7aS,9R,11aS,11bR,13aR,13bR)-9-(4-carboxyphenyl)-1-isopropyl-5a,5b,8,8,8,11a-pentamethylicosahydro-1H-cyclopenta[a]chrysene-3a-carboxylic acid], 10 nM. On to `CC(C)[C@@H]1CC[C@]2(C(=O)NCCN(C)C)CC[C@]3(C)[C@H](CC[C@@H]4[C@@]5(C)CC[C@@H](c6ccc(C(=O)O)cc6)C(C)(C)[C@@H]5CC[C@]43C)[C@@H]12` [Example B2, 4-((1S,3aS,5aR,5bR,7aS,9R,11aS,11bR,13aR,13bR)-3a-((2-(dimethylamino)ethyl)carbamoyl)-1-isopropyl-5a,5b,8,8,11a-pentamethylicosahydro-1H-cyclopenta[a]chrysen-9-yl)benzoic acid], for which the EC50 was found to be 2.53 nM.

Take `CC(C)[C@@H]1CC[C@]2(C(=O)NCCCN(C)C)CC[C@]3(C)[C@H](CC[C@@H]4[C@@]5(C)CC[C@@H](c6ccc(C(=O)O)cc6)C(C)(C)[C@@H]5CC[C@]43C)[C@@H]12` [Example B3, 4-((1S,3aS,5aR,5bR,7aS,9R,11aS,11bR,13aR,13bR)-3a-((3-(dimethylamino)propyl)carbamoyl)-1-isopropyl-5a,5b,8,8,11a-pentamethylicosahydro-1H-cyclopenta[a]chrysen-9-yl)benzoic acid]: the EC50 came to 2.33 nM. As for `CC(C)[C@@H]1CC[C@]2(N)CC[C@]3(C)[C@H](CC[C@@H]4[C@@]5(C)CC[C@@H](c6ccc(C(=O)O)cc6)C(C)(C)[C@@H]5CC[C@]43C)[C@@H]12` [Example B4, 4-((1S,3aS,5aR,5bR,7aS,9R,11aS,11bR,13aR,13bR)-3a-amino-1-isopropyl-5a,5b,8,8,11a-pentamethylicosahydro-1H-cyclopenta[a]chrysen-9-yl)benzoic acid], the figure is 4.53 nM; as for `CC(C)[C@@H]1CC[C@]2(NCCN3CCC(S(C)(=O)=O)CC3)CC[C@]3(C)[C@H](CC[C@@H]4[C@@]5(C)CC[C@@H](c6ccc(C(=O)O)cc6)C(C)(C)[C@@H]5CC[C@]43C)[C@@H]12` [Example B13, 4-((1S,3aS,5aR,5bR,7aS,9R,11aS,11bR,13aR,13bR)-1-isopropyl-5a,5b,8,8,11a-pentamethyl-3a-((2-(4-(methylsulfonyl)piperidin-1-yl)ethyl)amino)icosahydro-1H-cyclopenta[a]chrysen-9-yl)benzoic acid], 1.58 nM.

The record behind these values is patent US20190135857A1, “TR[…] HUMAN IMMUNODEFICIENCY VIRUS REPLICATION” (priority 2016, published 2019).
